From patent publication US7629332B2, “Nitrophenyl mustard and nitrophenylaziridine alcohols and their corresponding phosphates and their use as targeted cytotoxic agents” (Auckland Uniservices Limited, priority 2003, dated 2009)

What was measured:
A549 (P450R+ve) = assay: Cell proliferation (sulphorhodamine B) IC50, P450R-transfected A549 human lung cells, anoxia vs 20% O2; type: cell-based; details: for A549 (P450R+ve) 20% O2/anoxia IC50 Ratio: 4 h, sensitivity ratio for hypoxia; for IC50: A549, 4 h drug exposure under 0% oxygen
WiDr (NTR+ve) = assay: Cell proliferation (sulphorhodamine B) IC50, NTR-transfected WiDr human colon cells; type: cell-based; details: for WiDr WT:NTR IC50 Ratio: 4 h, sensitivity ratio for NTR expression; for IC50: WiDr, 4 h drug exposure, growth 5 further days
in vivo = details: CD-1 nude, mouse, ip

Compound	A549 (P450R+ve) 20% O2/anoxia IC50 Ratio (A549 (P450R+ve))	IC50 (A549 (P450R+ve))	WiDr WT:NTR IC50 Ratio (WiDr (NTR+ve))	IC50 (WiDr (NTR+ve))	MTD (in vivo)
O=C(NCCCO)c1cc(N(CCCl)CCCl)c([N+](=O)[O-])cc1[N+](=O)[O-] [IIa-3, N-(3-Hydroxypropyl)-5-[bis(2-Chloroethyl)Amino]-2,4-Dinitrobenzamide]	23	54 µM	36	47 µM	–
O=C(NCCO)c1cc(N(CCBr)CCBr)c([N+](=O)[O-])cc1[N+](=O)[O-] [IIa-7, N-(2-Hydroxyethyl)-5-[Bis(2-Bromoethyl)Amino]-2,4-Dinitrobenzamide]	49	6.7 µM	99	1.5 µM	–
O=C(NCCCO)c1cc(N(CCBr)CCBr)c([N+](=O)[O-])cc1[N+](=O)[O-] [IIa-8, N-(3-Hydroxypropyl)-5-[Bis(2-Bromoethyl)Amino]-2,4-Dinitrobenzamide]	6.6	23 µM	224	1.6 µM	–
O=C(NCCCCCO)c1cc(N(CCBr)CCBr)c([N+](=O)[O-])cc1[N+](=O)[O-] [IIa-10, N-(5-Hydroxypentyl)-5-[Bis(2-Bromoethyl)Amino]-2,4-Dinitrobenzamide]	–	–	22	10 µM	–
O=C(NCCCCCCO)c1cc(N(CCBr)CCBr)c([N+](=O)[O-])cc1[N+](=O)[O-] [IIa-11, N-(6-Hydroxyhexyl)-5-[Bis(2-Bromoethyl)Amino]-2,4-Dinitrobenzamide]	–	–	9	11 µM	–
O=C(NCCO)c1cc(N(CCI)CCI)c([N+](=O)[O-])cc1[N+](=O)[O-] [IIa-14, 5-[Bis(2-Iodoethyl)Amino]-N-(2-Hydroxyethyl)-2,4-Dinitrobenzamide]	4.5	13 µM	49	2.9 µM	–
O=C(NCCCCO)c1cc([N+](=O)[O-])cc([N+](=O)[O-])c1N(CCCl)CCCl [IIb-4, 2-[Bis(2-Chloroethyl)Amino]-N-(4-Hydroxybutyl)-3,5-Dinitrobenzamide]	–	–	18	14 µM	–
O=C(NCCCCCO)c1cc([N+](=O)[O-])cc([N+](=O)[O-])c1N(CCCl)CCCl [IIb-5, 2-[Bis(2-Chloroethyl)Amino]-N-(5-Hydroxypentyl)-3,5-Dinitrobenzamide]	–	–	19	13 µM	–
O=C(NCCCCO)c1cc([N+](=O)[O-])cc([N+](=O)[O-])c1N(CCBr)CCBr [IIb-9, 2-[Bis(2-Bromoethyl)Amino]-N-(4-Hydroxybutyl)-3,5-Dinitrobenzamide]	20	1.4 µM	5	0.9 µM	–
O=C(NCCCCCO)c1cc([N+](=O)[O-])cc([N+](=O)[O-])c1N(CCBr)CCBr [IIb-10, 2-[Bis(2-Bromoethyl)Amino]-N-(5-Hydroxypentyl)-3,5-Dinitrobenzamide]	11	2.3 µM	2	0.9 µM	–
O=C(NCCCCCCO)c1cc([N+](=O)[O-])cc([N+](=O)[O-])c1N(CCBr)CCBr [IIb-11, 2-[Bis(2-Bromoethyl)Amino]-N-(6-Hydroxyhexyl)-3,5-Dinitrobenzamide]	4.5	6.6 µM	2	1 µM	–
O=C(NCCO)c1c([N+](=O)[O-])ccc(N(CCBr)CCBr)c1[N+](=O)[O-] [IIc-7, 3-[Bis(2-Bromoethyl)Amino]-N-(2-Hydroxyethyl)-2,6-Dinitrobenzamide]	40	3.9 µM	46	10 µM	–
O=C(NCCCO)c1c([N+](=O)[O-])ccc(N(CCBr)CCBr)c1[N+](=O)[O-] [IIc-8, 3-[Bis(2-Bromoethyl)Amino]-N-(3-Hydroxypropyl)-2,6-Dinitrobenzamide]	24	6.6 µM	70	5 µM	–
O=C(NCCCCO)c1c([N+](=O)[O-])ccc(N(CCBr)CCBr)c1[N+](=O)[O-] [IIc-9, 3-[Bis(2-Bromoethyl)Amino]-N-(4-Hydroxybutyl)-2,6-Dinitrobenzamide]	21	7.3 µM	6	31 µM	–
O=C(NCCCOP(=O)(O)O)c1cc(N(CCBr)CCBr)c([N+](=O)[O-])cc1[N+](=O)[O-] [Ia-8P, 3-[[5-[Bis(2-Bromoethyl)Amino]-2,4-Dinitrobenzoyl]Amino]Propyl Dihydrogen Phosphate]	–	–	–	–	1000 µmol/kg
O=C(NCCOP(=O)(O)O)c1cc([N+](=O)[O-])cc([N+](=O)[O-])c1N(CCCl)CCCl [Ib-2P, 2-[[2-[Bis(2-Chloroethyl)Amino]-3,5-Dinitrobenzoyl]Amino]Ethyl Dihydrogen Phosphate]	–	–	–	–	237 µmol/kg
O=C(NCCCOP(=O)(O)O)c1c([N+](=O)[O-])ccc(N(CCBr)CCBr)c1[N+](=O)[O-] [Ic-8P, 3-({3-[Bis(2-Bromoethyl)Amino]-2,6-Dinitrobenzoyl}Amino)Propyl Dihydrogen Phosphate]	–	–	–	–	562 µmol/kg
